Measurements: the supplement of paper PMC7021759
± gives the standard deviation of the averaged measurements.

Test system: SK-N-MM (SKNMM-MYCN, doxycycline-inducible MYCN)
Assay: area under dose-response curve (CellTiter-Glo viability normalised to plate controls) (AUC (arbitrary units)); higher = more loss of viability; extreme values may be limits of the assay
In short: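 SK-N-MM cells carrying doxycycline-inducible MYCN were seeded in 96-well plates at 1250 cells/100 μL, and about 24 h later they received medium with or without doxycycline. Two days after that, 10-point 1:3 dilution series of compounds were added by pin transfer (890-fold dilution of stock), with a second dose on day 4. CellTiter-Glo luminescence was measured 3 or 8 days after drugging. Log2 signals were scaled against the positive and negative controls on each plate and used to calculate the area under the dose-response curve.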

[1] = MYCN induction (doxycycline): +doxycycline (MYCN induced), time after drugging: 3 days
[2] = MYCN induction (doxycycline): +doxycycline (MYCN induced), time after drugging: 8 days
[3] = MYCN induction (doxycycline): no doxycycline (MYCN not induced), time after drugging: 8 days
[4] = MYCN induction (doxycycline): no doxycycline (MYCN not induced), time after drugging: 3 days

## CCOC(=O)c1ccc(C#Cc2ccc3c(c2)C(C)(C)CCS3)nc1 [TAZAROTENE]
[1]
  area under dose-response curve: 3.59
[2]
  area under dose-response curve: 9.49
[3]
  area under dose-response curve: 0.284

## COc1cc2nccc(Oc3ccc(NC(=O)Nc4cc(C)on4)c(Cl)c3)c2cc1OC [TIVOZANIB]
[1]
  area under dose-response curve: 0
[2]
  area under dose-response curve: 0
[4]
  area under dose-response curve: 0
[3]
  area under dose-response curve: 0

## Nc1nc(F)nc2c1ncn2[C@@H]1O[C@H](COP(=O)(O)O)[C@@H](O)[C@@H]1O [FLUDARABINE PHOSPHATE]
[1]
  area under dose-response curve: 0
[2]
  area under dose-response curve: 0
[4]
  area under dose-response curve: 0
[3]
  area under dose-response curve: 57.1

## CCN1CCN(Cc2ccc(Nc3ncc(F)c(-c4cc(F)c5nc(C)n(C(C)C)c5c4)n3)nc2)CC1 [ABEMACICLIB]
[3]
  area under dose-response curve: 14.4

## N#CC[C@H](C1CCCC1)n1cc(-c2ncnc3[nH]ccc23)cn1 [RUXOLITINIB]
[1]
  area under dose-response curve: 27.6
[2]
  area under dose-response curve: 121
[4]
  area under dose-response curve: 22.3
[3]
  area under dose-response curve: 100

## C[C@H]1C[C@H]2[C@@H]3CCC4=CC(=O)C=C[C@]4(C)[C@@]3(F)[C@@H](O)C[C@]2(C)[C@@]1(O)C(=O)CO [BETAMETHASONE]
[1]
  area under dose-response curve: 0
[2]
  area under dose-response curve: 0
[4]
  area under dose-response curve: 0

## Nc1ccn([C@@H]2O[C@H](CO)[C@@H](O)[C@@H]2O)c(=O)n1 [CYTARABINE]
[1]
  area under dose-response curve: 40.4
[2]
  area under dose-response curve: 221
[4]
  area under dose-response curve: 33.7
[3]
  area under dose-response curve: 132

## Clc1ccc(C(c2ccccc2Cl)C(Cl)Cl)cc1 (stereo not given) [MITOTANE]
[1]
  area under dose-response curve: 0
[2]
  area under dose-response curve: 0
[4]
  area under dose-response curve: 0
[3]
  area under dose-response curve: 0

## CN(N=O)C(=O)N[C@H]1C(O)O[C@H](CO)[C@@H](O)[C@@H]1O (mixture of isomers) [STREPTOZOSIN]
[1]
  area under dose-response curve: 0
[2]
  area under dose-response curve: 0
[4]
  area under dose-response curve: 0

## Cc1cc(Nc2cc(N3CCN(C)CC3)nc(/C=C/c3ccccc3)n2)n[nH]1 [ENMD-2076]
[1]
  area under dose-response curve: 86
[2]
  area under dose-response curve: 133
[4]
  area under dose-response curve: 0.719
[3]
  area under dose-response curve: 111

## CS(=O)(=O)c1ccc(-c2cnc(N)c(C(=O)Nc3ccccc3)n2)cc1 [VE-821]
[1]
  area under dose-response curve: 41.9
[2]
  area under dose-response curve: 75.9
[4]
  area under dose-response curve: 8.07
[3]
  area under dose-response curve: 32

## Cc1ccc(Nc2nccc(N(C)c3ccc4c(C)n(C)nc4c3)n2)cc1S(N)(=O)=O [PAZOPANIB]
[1]
  area under dose-response curve: 21.1
[2]
  area under dose-response curve: 40.1
[4]
  area under dose-response curve: 18.1
[3]
  area under dose-response curve: 29.2

## Cc1cnc(Nc2ccc(OCCN3CCCC3)cc2)nc1Nc1cccc(S(=O)(=O)NC(C)(C)C)c1 [FEDRATINIB]
[1]
  area under dose-response curve: 109
[2]
  area under dose-response curve: 176
[4]
  area under dose-response curve: 102
[3]
  area under dose-response curve: 151

## Cc1c(N)nc([C@H](CC(N)=O)NC[C@H](N)C(N)=O)nc1C(=O)N[C@H](C(=O)N[C@H](C)[C@@H](O)[C@H](C)C(=O)N[C@H](C(=O)NCCc1nc(-c2nc(C(=O)NCCC[S+](C)C)cs2)cs1)[C@@H](C)O)[C@@H](OC1OC(CO)C(O)C(O)C1OC1OC(CO)C(O)C(OC(N)=O)C1O)c1cnc[nH]1 (stereo not given in full) [BLEOMYCIN]
[1]
  area under dose-response curve: 0
[2]
  area under dose-response curve: 0
[4]
  area under dose-response curve: 0
[3]
  area under dose-response curve: 0

## O=c1[nH]c(=O)n([C@H]2C[C@H](O)[C@@H](CO)O2)cc1/C=C/Br [BRIVUDINE]
[1]
  area under dose-response curve: 0.716
[2]
  area under dose-response curve: 11.1
[4]
  area under dose-response curve: 0
[3]
  area under dose-response curve: 0.883

## CNC(=O)c1ccccc1Sc1ccc2c(/C=C/c3ccccn3)n[nH]c2c1 [AXITINIB]
[1]
  area under dose-response curve: 52.9
[2]
  area under dose-response curve: 109
[4]
  area under dose-response curve: 32.4
[3]
  area under dose-response curve: 69.7

## COc1cccc2c1C(=O)c1c(O)c3c(c(O)c1C2=O)C[C@@](O)(C(=O)CO)C[C@@H]3O[C@H]1C[C@H](N)[C@H](O)[C@H](C)O1 [DOXORUBICIN]
[1]
  area under dose-response curve: 135
[2]
  area under dose-response curve: 295
[4]
  area under dose-response curve: 104
[3]
  area under dose-response curve: 224

## O=C1c2c(O)ccc(O)c2C(=O)c2c(NCCNCCO)ccc(NCCNCCO)c21 [MITOXANTHRONE]
[1]
  area under dose-response curve: 166
[2]
  area under dose-response curve: 325
[4]
  area under dose-response curve: 119
[3]
  area under dose-response curve: 258

## C=CCn1c(=O)c2cnc(Nc3ccc(N4CCN(C)CC4)cc3)nc2n1-c1cccc(C(C)(C)O)n1 [MK-1775]
[1]
  area under dose-response curve: 105 ± 20
[2]
  area under dose-response curve: 159 ± 26
[4]
  area under dose-response curve: 42.5 ± 14
[3]
  area under dose-response curve: 98.1 ± 4.8

## COc1cc([C@@H]2c3cc4c(cc3[C@@H](O[C@@H]3O[C@@H]5CO[C@@H](C)O[C@H]5[C@H](O)[C@H]3O)[C@H]3COC(=O)[C@H]23)OCO4)cc(OC)c1O [ETOPOSIDE]
[1]
  area under dose-response curve: 42.1
[2]
  area under dose-response curve: 114
[4]
  area under dose-response curve: 18.8
[3]
  area under dose-response curve: 43.1

## O=C(NC1CCNCC1)c1n[nH]cc1NC(=O)c1c(Cl)cccc1Cl [AT-7519]
[1]
  area under dose-response curve: 48.9
[2]
  area under dose-response curve: 113
[3]
  area under dose-response curve: 65.7

## COc1cc(Nc2ncc3c(n2)-c2ccc(Cl)cc2C(c2c(F)cccc2OC)=NC3)ccc1C(=O)O [ALISERTIB]
[1]
  area under dose-response curve: 51.1 ± 1.1
[2]
  area under dose-response curve: 126 ± 21
[4]
  area under dose-response curve: 15.2 ± 0.59
[3]
  area under dose-response curve: 69.4 ± 30

## Cc1nc(Nc2ncc(C(=O)Nc3c(C)cccc3Cl)s2)cc(N2CCN(CCO)CC2)n1 [DASATINIB]
[1]
  area under dose-response curve: 39.9
[2]
  area under dose-response curve: 121
[4]
  area under dose-response curve: 40
[3]
  area under dose-response curve: 51.4

## CNC(=O)c1ccc(N2C(=S)N(c3ccc(C#N)c(C(F)(F)F)c3)C(=O)C2(C)C)cc1F [ENZALUTAMIDE]
[1]
  area under dose-response curve: 0
[2]
  area under dose-response curve: 0
[4]
  area under dose-response curve: 0
[3]
  area under dose-response curve: 0

## CCc1ccc(CCOc2ccc(CC3SC(=O)NC3=O)cc2)nc1 (stereo not given) [PIOGLITAZONE]
[1]
  area under dose-response curve: 0
[2]
  area under dose-response curve: 0
[4]
  area under dose-response curve: 0
[3]
  area under dose-response curve: 0

## Cn1cnc2c(F)c(Nc3ccc(Br)cc3Cl)c(C(=O)NOCCO)cc21 [SELUMETINIB]
[1]
  area under dose-response curve: 0
[2]
  area under dose-response curve: 0
[4]
  area under dose-response curve: 0.45
[3]
  area under dose-response curve: 18.9

## O=C(O)CCCc1ccc(N(CCCl)CCCl)cc1 [CHLORAMBUCIL]
[1]
  area under dose-response curve: 0.922
[2]
  area under dose-response curve: 0
[4]
  area under dose-response curve: 0.476
[3]
  area under dose-response curve: 2.34

## OCCN1CCN(CCCN2c3ccccc3Sc3ccc(C(F)(F)F)cc32)CC1 [FLUFENAZINE]
[1]
  area under dose-response curve: 0
[2]
  area under dose-response curve: 0
[4]
  area under dose-response curve: 0
[3]
  area under dose-response curve: 0

## CC[C@@H]1C(=O)N(C)c2cnc(Nc3ccc(C(=O)NC4CCN(C)CC4)cc3OC)nc2N1C1CCCC1 [BI-2536]
[1]
  area under dose-response curve: 85.3
[2]
  area under dose-response curve: 213
[4]
  area under dose-response curve: 65.4
[3]
  area under dose-response curve: 92.1

## Cc1ncc(CNC(=O)N(CCCl)N=O)c(N)n1 [NIMUSTINE]
[1]
  area under dose-response curve: 0
[2]
  area under dose-response curve: 0
[4]
  area under dose-response curve: 0
[3]
  area under dose-response curve: 0

## COc1cc(Nc2c(C#N)cnc3cc(OCCCN4CCN(C)CC4)c(OC)cc23)c(Cl)cc1Cl [BOSUTINIB]
[1]
  area under dose-response curve: 0.583
[2]
  area under dose-response curve: 0.0371
[4]
  area under dose-response curve: 0.885
[3]
  area under dose-response curve: 0.202

## Cn1nccc1Nc1nccc(-c2ccn([C@H](CO)c3ccc(Cl)c(F)c3)c(=O)c2)n1 [GDC-0994]
[1]
  area under dose-response curve: 0
[2]
  area under dose-response curve: 0
[4]
  area under dose-response curve: 2.52
[3]
  area under dose-response curve: 0

## CCC(C)n1ncn(-c2ccc(N3CCN(c4ccc(OCC5COC(Cn6cncn6)(c6ccc(Cl)cc6Cl)O5)cc4)CC3)cc2)c1=O (stereo not given) [ITRACONAZOLE]
[1]
  area under dose-response curve: 13.1
[2]
  area under dose-response curve: 26.1
[4]
  area under dose-response curve: 11.4
[3]
  area under dose-response curve: 26.1

## Nc1nc2[nH]cc(CCc3ccc(C(=O)N[C@@H](CCC(=O)O)C(=O)O)cc3)c2c(=O)[nH]1 [PEMETREXED]
[1]
  area under dose-response curve: 6.04
[2]
  area under dose-response curve: 112
[4]
  area under dose-response curve: 0
[3]
  area under dose-response curve: 58.3

## Nc1ccn([C@@H]2O[C@H](CO)[C@@H](O)C2(F)F)c(=O)n1 [GEMCITABINE]
[1]
  area under dose-response curve: 72.2
[2]
  area under dose-response curve: 299
[4]
  area under dose-response curve: 43.4
[3]
  area under dose-response curve: 139

## COc1cc(CCc2cc(NC(=O)c3ccc(N4CC(C)NC(C)C4)cc3)n[nH]2)cc(OC)c1 (stereo not given) [AZD4547]
[1]
  area under dose-response curve: 2.86
[2]
  area under dose-response curve: 3.53
[4]
  area under dose-response curve: 2.67
[3]
  area under dose-response curve: 3.59

## C/C(=C\c1csc(C)n1)[C@@H]1C[C@@H]2O[C@]2(C)CCC[C@H](C)[C@H](O)[C@@H](C)C(=O)C(C)(C)[C@@H](O)CC(=O)N1 [IXABEPILONE]
[1]
  area under dose-response curve: 121
[2]
  area under dose-response curve: 199
[4]
  area under dose-response curve: 89.9
[3]
  area under dose-response curve: 138

## Cc1cnc(NC(=O)Nc2cc(Br)c(C)cc2OC[C@@H]2CNCCO2)cn1 [RABUSERTIB]
[1]
  area under dose-response curve: 89.5
[2]
  area under dose-response curve: 171
[4]
  area under dose-response curve: 31
[3]
  area under dose-response curve: 95.5
